# Source: patent publication US20200110072A1, “IMAGING METHODS TO ASSESS THE EFFICACY OF ANTICANCER DRUGS IN VITRO USING SPONTANEOUSLY-FORMING SPHEROIDS” (ROWAN UNIVERSITY, priority 2016, published 2020)
# pIC50: −log10 of the molar value. “Also recorded” adds a separate entry of the source.
# Experiments:
# [1] = system: spheroids^MARY-X; experiment: Spheroids^MARY-X dual-fluorescence viability assay (acridine orange / propidium iodide, Cellometer K2); assay type: cell-based, human; details: 24-hour treatment; for Response in dual fluorescence viability assay: AO/PI staining; for pIC50: Homo sapiens, AO/PI, read-out: IC50 from dose-response curve, dual fluorescence viability assay
# Method: Spheroids^MARY-X Viability Assay: Dual-fluorescent assays were performed on a Cellometer K2 (Nexcelom Biosciences, Lawrence, Mass.) using the viability stains, acridine orange and propium iodide.
# Dissolution indices vs. standard viability assay: In an effort to validate response data acquired by image analysis (i.e. dissolution indices) an alternate method, traditionally used to determine and quantify cell viability, and was performed on a replicate drug screen. This drug screen reproduced drug dose parameters of paclitaxel (PTX), gambogic acid (GA) and MAD28. Viability was measured by dual fluorescence analysis of propidium iodide (PI) and acridine orange (AO). Following the 24-hour treatment period, spheroids^MARY-X were analyzed using the Cellometer K2 in the dual-fluorescence viability assay. The nuclear stains AO and PI were added to the control (vehicle only) and treated spheroids^MARY-X, where AO stains both live and dead (green) cells and PI stains only dead (orange) cells with compromised membranes. Fluorescent images presented here are one of eight random fields captured for the viability analyses.
# [2] = system: spheroids^MARY-X; experiment: Spheroids^MARY-X drug screen: bright-field image analysis of spheroid dissolution (dissolution indices); assay type: cell-based, human; details: for Response (deviation from well-circumscribed spheroid edge / spheroid dissolution): increasing doses, bright-field images
# Method: In particular, the invention provides novel methods for determining drug response and calculating drug potency. In drug screens according to the invention spheroids or spheroids^MARY-X are seeded in multi-well plates, treated with vehicle only (control) and increasing doses of one or more drugs of interest. Following a 24-hr treatment period each well undergoes analysis to assess dissolution of the spheroids^MARY-X (see FIGS. 4A and 4B).
# In exemplary embodiments the dissolution index is determined by applying an image analysis program on ImageJ that measures the circularity of an object's area and perimeter where ‘1’ signifies a perfect circle (i.e. intact spheroid) and numbers approaching ‘0’ signify loss of circularity (i.e. dissolute spheroid). Note that ‘0’ signifies a straight line and can never be achieved in image analysis of spheroids given the innate circularity of individual cells (see FIG. 4A). The induction of apoptosis correlates with the loss of well-circumscribed edges of the usually tight, compact spheroids, i.e. dissolution is consistent with cell death of the spheroid/embolus.
# Spheroids^MARY-X Dissolution Indices: The spheroid dissolution index was determined by applying an image analysis program on ImageJ that measures the circularity of an object's area and perimeter where ‘1’ signifies a perfect circle (i.e. intact spheroid) and numbers approaching ‘0’ signify loss of circularity (i.e. dissolute spheroid). Note that ‘0’ signifies a straight line and can never be achieved in image analysis of spheroids given the innate circularity of individual cells.
# Drug Screen: The 40-100 μm spheroids were distributed in equal number (˜30-50 spheroids/well) to a multi-well plate. The spheroids^MARY-X was treated with vehicle only (DMSO) and increasing doses of drug of interest in each 24-well plate. Following 24 hr treatment periods each well was imaged and analyzed with ImageJ for measurement of dissolution of the spheroids^MARY-X. The induction of apoptosis is correlated with the loss of the well circumscribed edges of the usually tight, compact spheroids^MARY-X i.e. dissolution is consistent with cell death of the spheroid/embolus.
# [3] = system: triple-negative breast cancer 2-D culture models; details: preclinical analysis; cited from earlier work
structure (smiles),measurement,setting,value
"CC(=O)O[C@H]1C(=O)[C@@]2(C)[C@H]([C@H](OC(=O)c3ccccc3)[C@]3(O)C[C@H](OC(=O)[C@H](O)[C@@H](NC(=O)c4ccccc4)c4ccccc4)C(C)=C1C3(C)C)[C@]1(OC(C)=O)CO[C@@H]1C[C@@H]2O [Paclitaxel, paclitaxel]",Response in dual fluorescence viability assay,[1],ineffective at producing a ‘complete’ response
same,Response in dual fluorescence viability assay,[1]; listed as PTX,little if any activity
same,pIC50,[1],5.27
same,Response (deviation from well-circumscribed spheroid edge / spheroid dissolution),[2]; 24-hour treatment,virtually ineffective
same,pIC50,"[2]; 24-hour treatment, ImageJ circularity, read-out: IC50 from dissolution indices dose-response curve",5.11
same,pIC50,"[2]; Homo sapiens, 24 h, 24-hour treatment, ImageJ circularity, read-out: IC50 from dissolution indices dose-response curve",5.11
same,Response,[2]; at a 5.0 μM concentration,no to low
"CN(Cc1cnc2nc(N)nc(N)c2n1)c1ccc(C(=O)N[C@@H](CCC(=O)O)C(=O)O)cc1 [Methotrexate, methotrexate]",Response (deviation from well-circumscribed spheroid edge / spheroid dissolution),[2]; 24-hour treatment,no response and No
same,Response (deviation from well-circumscribed spheroid edge / spheroid dissolution),"[2]; 24-hour treatment, listed as methotrexate",no drug response
CC(C)=CCC[C@]1(C)C=Cc2c(O)c3c(c(CC=C(C)C)c2O1)O[C@]12C(=C[C@@H]4C[C@H]1C(C)(C)O[C@@]2(C/C=C(/C)C(=O)O)C4=O)C3=O [Gambogic acid],Response in dual fluorescence viability assay,[1],complete
same,Response in dual fluorescence viability assay,[1]; listed as GA,complete response
same,pIC50,[1],5.92
same,Response (deviation from well-circumscribed spheroid edge / spheroid dissolution),[2]; 24-hour treatment,complete
same,pIC50,"[2]; Homo sapiens, as printed in b33 for gambogic acid, read-out: IC50, spheroidal dissolution and apoptosis",6.27
same,pIC50,"[2]; Homo sapiens, read-out: IC50 from dissolution indices",6.27
same,Response (spheroid dissolution),[2]; at 2.5 μM concentration (MAD44: similar concentrations),complete spheroid dissolution
"CS(=O)(=O)CCNCc1ccc(-c2ccc3ncnc(Nc4ccc(OCc5cccc(F)c5)c(Cl)c4)c3c2)o1 [Lapatinib, lapatinib]",Response (deviation from well-circumscribed spheroid edge / spheroid dissolution),[2]; 24-hour treatment,Low - Moderate
same,Response (deviation from well-circumscribed spheroid edge / spheroid dissolution),"[2]; 24-hour treatment, listed as lapatinib",Low to moderate; also recorded: slight response; also recorded: low response
CC(C)NCCCn1c(Sc2cc3c(cc2I)OCO3)nc2c(N)ncnc21 [PU-H71],Response,[3],complete response
same,Response (deviation from well-circumscribed spheroid edge / spheroid dissolution),[2]; 24-hour treatment,no response
"COc1cccc2c1C(=O)c1c(O)c3c(c(O)c1C2=O)C[C@@](O)(C(=O)CO)C[C@@H]3O[C@H]1C[C@H](N)[C@H](O)[C@H](C)O1 [Doxorubicin, doxorubicin]",Response (deviation from well-circumscribed spheroid edge / spheroid dissolution),[2]; 24-hour treatment,mixed response
same,Response (deviation from well-circumscribed spheroid edge / spheroid dissolution),"[2]; 24-hour treatment, listed as Doxorubicin (DOX)",Moderate - Complete
"CC(C)C[C@H](NC(=O)[C@H](Cc1ccccc1)NC(=O)c1cnccn1)B(O)O [Bortezomib, bortezomib]",Response (deviation from well-circumscribed spheroid edge / spheroid dissolution),[2]; 24-hour treatment,Low - Moderate
same,Response (deviation from well-circumscribed spheroid edge / spheroid dissolution),"[2]; 24-hour treatment, listed as bortexomib",Low to moderate
same,Response (deviation from well-circumscribed spheroid edge / spheroid dissolution),"[2]; 24-hour treatment, listed as bortezomab",slight response
same,Response (deviation from well-circumscribed spheroid edge / spheroid dissolution),"[2]; 24-hour treatment, listed as bortezomib",slight response; also recorded: low response
"N.N.[Cl][Pt][Cl] [Cisplatin, cisplatin]",Response (deviation from well-circumscribed spheroid edge / spheroid dissolution),[2]; 24-hour treatment,No
same,Response (deviation from well-circumscribed spheroid edge / spheroid dissolution),"[2]; 24-hour treatment, listed as cisplatin",no drug response
